≈ marks a conversion by molar mass, not a printed value. Values belong to the molecule of their own block, whether it stands above or below them. Calls of active or inactive are those of the source. The rule behind the calls is not given here.
What was measured:
[1] = biological target: T1, Peroxisome proliferator-activated receptor alpha (Homo sapiens, UniProt Q07869); test: Agonist activity at recombinant human GAL4-DBD fused PPARalpha LBD expressed in COS7 cells after 24 hrs by luciferase reporter gene assay; format: cell-based
T1 sequence (Q07869 whole entry): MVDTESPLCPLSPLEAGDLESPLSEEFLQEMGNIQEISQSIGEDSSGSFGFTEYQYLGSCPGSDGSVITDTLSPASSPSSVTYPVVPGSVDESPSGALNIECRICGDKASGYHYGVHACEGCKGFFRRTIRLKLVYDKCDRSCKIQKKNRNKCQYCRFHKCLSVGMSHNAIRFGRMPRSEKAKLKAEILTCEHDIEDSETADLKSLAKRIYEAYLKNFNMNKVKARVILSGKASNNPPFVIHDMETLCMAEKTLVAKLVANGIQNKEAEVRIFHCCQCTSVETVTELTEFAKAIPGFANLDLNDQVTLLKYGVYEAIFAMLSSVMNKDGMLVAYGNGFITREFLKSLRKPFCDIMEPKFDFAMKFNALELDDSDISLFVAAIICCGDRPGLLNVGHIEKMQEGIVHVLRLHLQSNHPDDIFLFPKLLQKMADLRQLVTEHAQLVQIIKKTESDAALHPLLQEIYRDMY

Hepatocyte [2] = test: Cytotoxicity against F344/DuCrlCrlj rat primary hepatocytes assessed as reduction in cell viability at 10 to 100 uM after 24 hrs by LDH release assay; format: cell-based
[3] = Half life in cynomolgus monkey at 3 mg/kg, po by LC-MS/MS; format: ADME, organism-based, Macaca fascicularis; details: in vivo
[4] = Tmax in cynomolgus monkey at 3 mg/kg, po by LC-MS/MS; format: ADME, organism-based, Macaca fascicularis; details: in vivo
[5] = Volume of distribution at steady state in cynomolgus monkey at 1 mg/kg, iv by LC-MS/MS; format: ADME, organism-based, Macaca fascicularis; details: in vivo, read-out: Vdss
[6] = AUClast in cynomolgus monkey at 3 mg/kg, po by LC-MS/MS; format: ADME, organism-based, Macaca fascicularis; parameters: dose 3 mg/kg, time 0 - last, route oral; details: in vivo
[7] = 1-octanol/PBS distribution co-efficient, log D of the compound at […] at pH 7.4 after 30 mins by HPLC-MS/MS method; format: physicochemical
Hepatocyte [8] = test: Cytotoxicity against F344/DuCrlCrlj rat primary hepatocytes assessed as reduction in mitochondrial enzyme activity at 10 to 100 uM after 24 hrs by WST8 assay; format: cell-based
Hepatocyte [9] = test: Cytotoxicity against F344/DuCrlCrlj rat primary hepatocytes assessed as reduction in cell viability at 100 uM after 24 hrs by LDH release assay; format: cell-based
[10] = Aqueous thermodynamic solubility of the compound in pH 6.8 solution up to 4 hrs by HPLC-UV analysis; format: physicochemical; details: read-out: Therm_solubility
[11] = Apparent permeability of the compound after 4 hrs by PAMPA; format: ADME
[12] = Clearance in cynomolgus monkey at 1 mg/kg, iv by LC-MS/MS; format: ADME, organism-based, Macaca fascicularis; details: in vivo
[13] = Oral bioavailability in cynomolgus monkey at 3 mg/kg by LC-MS/MS; format: ADME, organism-based, Macaca fascicularis; details: in vivo
[14] = Cmax in cynomolgus monkey at 3 mg/kg, po by LC-MS/MS; format: ADME, organism-based, Macaca fascicularis; parameters: dose 3 mg/kg, route oral; details: in vivo
[15] = Metabolic stability in human liver microsomes after 0.5 hrs; format: ADME, microsome; details: read-out: Stability
Rattus norvegicus [16] = test: Toxicity in F344/DuCrlCrlj rat assessed as death at 50 mg/kg, po administered via gavage once daily for 28 days; format: organism-based; details: in vivo, 672 h
[17] = biological target: T2, Peroxisome proliferator-activated receptor gamma (Homo sapiens) (UniProt P37231); test: Agonist activity at recombinant human GAL4-TAD fused PPARgamma LBD assessed as induction of GAL4-DBD fused TRAP220 co-factor recruitment after 24 to 48 hrs by fluorescence assay
T2 sequence (whole entry): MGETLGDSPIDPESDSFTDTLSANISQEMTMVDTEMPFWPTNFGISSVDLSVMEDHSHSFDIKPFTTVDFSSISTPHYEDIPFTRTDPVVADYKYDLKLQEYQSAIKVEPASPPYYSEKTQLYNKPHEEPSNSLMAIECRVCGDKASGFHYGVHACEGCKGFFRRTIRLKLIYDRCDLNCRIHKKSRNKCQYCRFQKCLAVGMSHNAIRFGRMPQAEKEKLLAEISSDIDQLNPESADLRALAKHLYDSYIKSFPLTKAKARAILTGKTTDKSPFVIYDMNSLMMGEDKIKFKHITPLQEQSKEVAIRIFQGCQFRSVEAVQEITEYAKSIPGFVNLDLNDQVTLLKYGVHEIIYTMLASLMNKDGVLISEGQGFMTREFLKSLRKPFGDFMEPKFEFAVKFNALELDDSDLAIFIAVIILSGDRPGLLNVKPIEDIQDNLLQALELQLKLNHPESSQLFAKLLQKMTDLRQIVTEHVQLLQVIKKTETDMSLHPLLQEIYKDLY

[18] = Tmax in Zucker diabetic fatty rat at 0.3 mg/kg, po administered once daily for 21 days followed by additional administration on day 22; format: ADME, organism-based; details: in vivo
[19] = AUC (0 to 24 hrs) in F344/DuCrlCrlj rat at 50 mg/kg, po via gavage measured on day 28 post dose; format: ADME, organism-based; parameters: time < 24 hr, dose 50 mg/kg, route oral; details: in vivo
in vivo = details: F344/DuCrlCrlj, rat, po, 50 mg/kg
Description: Tmax in F344/DuCrlCrlj rat at 50 mg/kg, po via gavage measured on day 28 post dose

Rattus norvegicus [20] = test: Toxicity in F344/DuCrlCrlj rat assessed as body weight gain at 50 mg/kg, po administered via gavage once daily for 28 days relative to control; format: organism-based; details: in vivo, 672 h
[21] = biological target: T2, Peroxisome proliferator-activated receptor gamma (Homo sapiens); test: Agonist activity at recombinant human GAL4-TAD fused PPARgamma LBD assessed as induction of GAL4-DBD fused NCoA3 co-factor recruitment after 24 to 48 hrs by fluorescence assay
Rattus norvegicus [22] = test: Toxicity in Zucker diabetic fatty rat assessed as body weight gain at 3 mg/kg, po administered once daily for 14 days relative to control; format: organism-based; details: in vivo, 336 h
[23] = AUC (0 to 24 hrs) in Zucker diabetic fatty rat at 0.3 mg/kg, po administered once daily for 21 days followed by additional administration on day 22; format: ADME, organism-based; parameters: dose 0.3 mg/kg, time < 24 hr, route oral; details: in vivo
[24] = Cmax in F344/DuCrlCrlj rat at 50 mg/kg, po via gavage measured on day 28 post dose; format: ADME, organism-based; parameters: dose 50 mg/kg, route oral; details: in vivo
[25] = biological target: T2, Peroxisome proliferator-activated receptor gamma (Homo sapiens); test: Agonist activity at recombinant human GAL4-TAD fused PPARgamma LBD assessed as induction of GAL4-DBD fused SRC1 co-factor recruitment after 24 to 48 hrs by fluorescence assay
Rattus norvegicus [26] = test: Antidiabetic activity in Zucker diabetic fatty rat assessed as reduction in plasma glucose level at 3 mg/kg, po administered once daily for 14 days measured on day 15 relative to control; format: functional; parameters: scale not given: the % may be the effect or the level left
[27] = Cmax in Zucker diabetic fatty rat at 0.3 mg/kg, po administered once daily for 21 days followed by additional administration on day 22; format: ADME, organism-based; parameters: dose 0.3 mg/kg, route oral; details: in vivo
[28] = biological target: T2, Peroxisome proliferator-activated receptor gamma (Homo sapiens); test: Agonist activity at recombinant human GAL4-TAD fused PPARgamma LBD assessed as induction of GAL4-DBD fused CBP co-factor recruitment after 24 to 48 hrs by fluorescence assay
Rattus norvegicus [29] = test: Toxicity in F344/DuCrlCrlj rat assessed as effect on hematocrit at 50 mg/kg, po administered via gavage once daily for 28 days; format: organism-based; details: in vivo, 672 h
[30] = biological target: T2, Peroxisome proliferator-activated receptor gamma (Homo sapiens); test: Agonist activity at recombinant human GAL4-TAD fused PPARgamma LBD assessed as induction of GAL4-DBD fused RIP140e184b co-factor recruitment after 24 to 48 hrs by fluorescence assay
Rattus norvegicus [31] = test: Toxicity in F344/DuCrlCrlj rat assessed as increase in heart weight at 50 mg/kg, po administered via gavage once daily for 28 days; format: organism-based; details: in vivo, 672 h
Rattus norvegicus [32] = test: Toxicity in F344/DuCrlCrlj rat assessed as effect on kidney weight at 50 mg/kg, po administered via gavage once daily for 28 days; format: organism-based; details: in vivo, 672 h
[33] = Drug uptake in F344/DuCrlCrlj rat plasma administered via oral gavage measured on day 28 post dose; format: ADME
Rattus norvegicus [34] = test: Toxicity in F344/DuCrlCrlj rat assessed as reduction in RBC count at 50 mg/kg, po administered via gavage once daily for 28 days relative to control; format: organism-based; parameters: scale not given: the % may be the effect or the level left; details: in vivo, 672 h
Rattus norvegicus [35] = test: Toxicity in F344/DuCrlCrlj rat assessed as clinical abnormality at 50 mg/kg, po administered via gavage once daily for 28 days; format: organism-based; details: in vivo, 672 h
Rattus norvegicus [36] = test: Toxicity in F344/DuCrlCrlj rat assessed as effect on ovary weight at 50 mg/kg, po administered via gavage once daily for 28 days; format: organism-based; details: in vivo, 672 h
Rattus norvegicus [37] = test: Antidiabetic activity in Zucker diabetic fatty rat assessed as reduction in plasma glucose level administered orally once daily for 21 days measured on day 22; format: functional, organism-based
Rattus norvegicus [38] = test: Antidiabetic activity in Zucker diabetic fatty rat assessed as reduction in plasma glucose level at 0.3 mg/kg, po administered once daily for 21 days measured on day 22 relative to control; format: functional; parameters: scale not given: the % may be the effect or the level left

EC50 [1]: > 10 µM | half-life [3]: 2990 min | Tmax [4]: 4 h | Vd [5]: 0.88 L/kg | AUC(0-t) [6]: 1470 ng·h/mL | logD at 0.5 h [7]: 1.1 | solubility thermodynamic at 4 h [10]: 9.2 µg/mL (≈ 22.6 µM) | Papp at 4 h [11]: 5.8 ×10⁻⁶ cm/s | clearance [12]: 3.07 mL/min/kg | bioavailability [13]: 8.9% | Cmax [14]: 100 ng/mL | remaining at 0.5 h [15]: 100%
Structure (SMILES): Cc1cnc(Oc2ccc3nc(COc4cccc(C(=O)O)c4)n(C)c3c2)c(F)c1
Activity (Hepatocyte [2]): Non-Toxic | Activity (Hepatocyte [8]): Non-Toxic | Activity (Hepatocyte [9]): Toxic

Structure (SMILES): CN(CCOc1ccc(CC2SC(=O)NC2=O)cc1)c1ccccn1 (centres undefined) [ROSIGLITAZONE]
Activity (Rattus norvegicus [16]): Non-Toxic | Activity [17]: Active | Tmax [18]: 1.6 h | AUC at 24 h [19]: 525 µg·h/mL | Tmax (in vivo): 1 h | Activity (Rattus norvegicus [20]): 10% | Activity [21]: Active | Activity (Rattus norvegicus [22]): 12.6% | AUC at 24 h [23]: 6550 ng·h/mL | Cmax [24]: 67.6 µg/mL | Activity [25]: Active | Activity (Rattus norvegicus [26]): 40.3% | Cmax [27]: 1040 ng/mL | Activity [28]: Active | Activity (Rattus norvegicus [29]): Non-Toxic | Activity [30]: Active | Activity (Rattus norvegicus [31]): 18% | Activity (Rattus norvegicus [32]): Toxic | Drug uptake [33]: Dose-dependent effect | Activity (Rattus norvegicus [34]): 13% | Activity (Rattus norvegicus [35]): Non-Toxic | Activity (Rattus norvegicus [36]): Toxic | Activity (Rattus norvegicus [37]): Dose-dependent effect | Activity (Rattus norvegicus [38]): 50%

— ChEMBL document CHEMBL4152362, “Discovery of DS-6930, a potent selective PPARγ modulator. Part II: Lead optimization” (Bioorg Med Chem, 2018)
